# Reference: the supplement of paper PMC11061612
# What was measured:
# [1] = compound: C1CN(CCC1(C(=O)N[C@@H](CCO)C2=CC=C(C=C2)Cl)N)C3=NC=NC4=C3C=CN4 [Capivasertib]
# Method in brief: (§1)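 After 24 hours at 37°C and 5% CO2 in 1536-well plates holding 7.5 μl of DMEM/F12 or RPMI with 10% FBS, cancer cell lines were dosed for 72 hours, with final DMSO typically 0.2%. Viability came from CellTiter-Glo 2.0 luminescence, scaled between the means of blank wells and DMSO wells. A non-linear mixed effects model fitted a two-parameter logistic curve to each dose response to give the single-agent IC50.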
# [2] = compound: C=CCn1c(=O)c2cnc(Nc3ccc(N4CCN(C)CC4)cc3)nc2n1-c1cccc(C(C)(C)O)n1 [AZD1775]; conditions: max 3 µM
# Method in brief: as §1
# [3] = compound: CC(=O)Nc1cccc(-n2c(=O)n(C3CC3)c(=O)c3c(Nc4ccc(I)cc4F)n(C)c(=O)c(C)c32)c1 [Trametinib]; conditions: max 1 µM
# Method in brief: as §1
# [4] = compound: CC(=O)c1c(C)c2cnc(Nc3ccc(N4CCNCC4)cn3)nc2n(C2CCCC2)c1=O [Palbociclib]; conditions: max 10 µM
# Method in brief: as §1
# [5] = compound: CC(C)n1c(=O)n(C)c2cnc3cc(F)c(-c4ccc(OCCCN5CCCCC5)nc4)cc3c21 [AZD1390]; conditions: max 0.3 µM
# Method in brief: as §1
# [6] = compound: CC1(C)CCC(CN2CCN(c3ccc(C(=O)NS(=O)(=O)c4ccc(NCC5CCOCC5)c([N+](=O)[O-])c4)c(Oc4cnc5[nH]ccc5c4)c3)CC2)=C(c2ccc(Cl)cc2)C1 [Venetoclax]; conditions: max 1 µM
# Method in brief: as §1
# [7] = compound: CC1=C(C(=CC=C1)Cl)NC(=O)C2=CN=C(S2)NC3=CC(=NC(=N3)C)N4CCN(CC4)CCO [Dasatinib]; conditions: max 2 µM
# Method in brief: as §1
# [8] = compound: CC1=CN2[C@@H](C1)C=NC3=CC(=C(C=C3C2=O)OC)OCCCCCOC4=C(C=C5C(=C4)N=C[C@@H]6CC(=CN6C5=O)C)OC [SG3199]; conditions: max 0.001 µM
# Method in brief: as §1
# [9] = compound: CCN(CCO)CCCOc1ccc2c(Nc3cc(CC(=O)Nc4cccc(F)c4)[nH]n3)ncnc2c1 [AZD2811]; conditions: max 1 µM
# Method in brief: as §1
# [10] = compound: CCc1c2c(nc3ccc(O)cc13)-c1cc3c(c(=O)n1C2)COC(=O)[C@]3(O)CC [SN-38]; conditions: max 0.3 µM
# Method in brief: as §1
# [11] = compound: CN(C)CCCOc1ccc(-c2ccc3ncc4c(c3c2)n(C2CCOCC2)c(=O)n4C)cn1 [AZD0156]; conditions: max 3 µM
# Method in brief: as §1
# [12] = compound: CN(CC[C@H](CSC1=CC=CC=C1)NC2=C(C=C(C=C2)S(=O)(=O)NC(=O)C3=CC=C(C=C3)N4CCC(CC4)[C@H](C5=CC=CC=C5C6=CC=C(C=C6)Cl)O)S(=O)(=O)C(F)(F)F)CCO [AZD4320]; conditions: max 1 µM
# Method in brief: as §1
# [13] = compound: COc1cc(Nc2ncc3c(n2)-c2ccc(Cl)cc2C(c2c(F)cccc2OC)=NC3)ccc1C(=O)O [Alisertib]; conditions: max 10 µM
# Method in brief: as §1
# [14] = compound: COc1cc2ncnc(Nc3ccc(F)c(Cl)c3)c2cc1OCCCN1CCOCC1 [Gefitinib]; conditions: max 10 µM
# Method in brief: as §1
# [15] = compound: COc1cccc(OCCCN)c1-c1cc(Nc2cnc(C#N)cn2)n[nH]1 [Prexasertib]; conditions: max 1 µM
# Method in brief: as §1
# [16] = compound: COc1cccc2c1C(=O)c1c(O)c3c(c(O)c1C2=O)C[C@@](O)(C(=O)CO)C[C@@H]3O[C@H]1C[C@H](N)[C@H](O)[C@H](C)O1 [Doxorubicin]; conditions: max 1 µM
# Method in brief: as §1
# [17] = compound: COc1nnc2ccc(N3CCC(c4ccc(OCCN5CCN(C)C(=O)[C@H]5C)cc4)CC3)nn12 [AZD5153]; conditions: max 1 µM
# Method in brief: as §1
# [18] = compound: CS(=O)(=O)CCNCc1ccc(-c2ccc3ncnc(Nc4ccc(OCc5cccc(F)c5)c(Cl)c4)c3c2)o1 [Lapatinib]; conditions: max 10 µM
# Method in brief: as §1
# [19] = compound: C[C@@H](Nc1cc(F)cc(F)c1)c1cc(C(=O)N(C)C)cc2c(=O)cc(N3CCOCC3)oc12 [AZD8186]; conditions: max 3 µM
# Method in brief: as §1
# [20] = compound: C[C@@H](Oc1cc(-c2cnn(C3CCNCC3)c2)cnc1N)c1c(Cl)ccc(F)c1Cl [Crizotinib]; conditions: max 10 µM
# Method in brief: as §1
# [21] = compound: C[C@@H](c1ccc2nccn2c1)n1nnc2ncc(-c3cnn(C)c3)nc21 [Savolitinib]; conditions: max 1 µM
# Method in brief: as §1
# [22] = compound: C[C@@H]1COCCN1C2=NC(=NC(=C2)C3(CC3)[S@](=N)(=O)C)C4=C5C=CNC5=NC=C4 [AZD6738]; conditions: max 10 µM
# Method in brief: as §1
# [23] = compound: Cc1c2c(nn1C)CSCc1cc(n(C)n1)CSc1cc(c3ccccc3c1)OCCCc1c(C(=O)O)n(C)c3c-2c(Cl)ccc13 [AZD5991]; conditions: max 1 µM
# Method in brief: as §1
# [24] = compound: Cc1cc2ncnn2cc1Nc1ncc2c(n1)n(C1CCOCC1)c(=O)n2C [AZD7648]; conditions: max 10 µM
# Method in brief: as §1
# [25] = compound: Cc1nc(-c2cn3c(n2)-c2ccc(-c4cnn(C(C)(C)C(N)=O)c4)cc2OCC3)n(C(C)C)n1 [Taselisib]; conditions: max 10 µM
# Method in brief: as §1
# [26] = compound: Cn1cnc2c(F)c(Nc3ccc(Br)cc3Cl)c(C(=O)NOCCO)cc21 [Selumetinib]; conditions: max 10 µM
# Method in brief: as §1
# [27] = compound: O=C(c1cc(Cc2n[nH]c(=O)c3ccccc23)ccc1F)N1CCN(C(=O)C2CC2)CC1 [Olaparib]
# Method in brief: as §1
Cell Line,"IC50, cell viability 72 h ([1]; max 10 µM)","IC50, cell viability 72 h [2]","IC50, cell viability 72 h [3]","IC50, cell viability 72 h [4]","IC50, cell viability 72 h [5]","IC50, cell viability 72 h [6]","IC50, cell viability 72 h [7]","IC50, cell viability 72 h [8]","IC50, cell viability 72 h [9]","IC50, cell viability 72 h [10]","IC50, cell viability 72 h [11]","IC50, cell viability 72 h [12]","IC50, cell viability 72 h [13]","IC50, cell viability 72 h [14]","IC50, cell viability 72 h [15]","IC50, cell viability 72 h [16]","IC50, cell viability 72 h [17]","IC50, cell viability 72 h [18]","IC50, cell viability 72 h [19]","IC50, cell viability 72 h [20]","IC50, cell viability 72 h [21]","IC50, cell viability 72 h [22]","IC50, cell viability 72 h [23]","IC50, cell viability 72 h [24]","IC50, cell viability 72 h [25]","IC50, cell viability 72 h [26]","IC50, cell viability 72 h ([27]; max 10 µM)","IC50, cell viability 72 h ([1]; max 3 µM)","IC50, cell viability 72 h ([27]; max 3 µM)"
CAL-33 (Oral Cavity Carcinoma),> 10000 nM,659 nM,724 nM,> 10000 nM,> 300 nM,> 1000 nM,550 nM,> 1 nM,255 nM,5.71 nM,> 3000 nM,> 1000 nM,553 nM,> 10000 nM,138 nM,219 nM,> 1000 nM,3530 nM,> 3000 nM,> 10000 nM,> 1000 nM,4390 nM,> 1000 nM,> 10000 nM,122 nM,> 10000 nM,> 10000 nM,,
CHP-134 (Neuroblastoma),,646 nM,,,,,,,,,> 3000 nM,,,,,,,,,,,,,,,,,> 3000 nM,> 3000 nM
Detroit562 (Head and Neck Carcinoma),6950 nM,430 nM,> 1000 nM,> 10000 nM,> 300 nM,> 1000 nM,115 nM,> 1 nM,188 nM,22 nM,> 3000 nM,> 1000 nM,760 nM,> 10000 nM,29.5 nM,> 1000 nM,65.2 nM,2020 nM,> 3000 nM,1680 nM,> 1000 nM,2150 nM,> 1000 nM,> 10000 nM,355 nM,> 10000 nM,> 10000 nM,,
